In the NIST ThermoML archive (doi:10.1021/je400134d):

Assay: xn = mol fraction of the nth substance listed
Conditions: 100 kPa, Liquid; for speed of sound: Pulse-echo method; for mass density: Vibrating tube method

CNc1ccccc1 [N-methylaniline] + C1CCCCC1
Conditions | mass density [kg/m3] | speed of sound [m/s]
293.15 K, x1 = 0.0516 | 787.947 | 1285.7
293.15 K, x1 = 0.1047 | 798.075 | 1294.4
293.15 K, x1 = 0.1522 | 807.416 | 1303
293.15 K, x1 = 0.2023 | 817.479 | 1313.2
293.15 K, x1 = 0.2482 | 826.755 | 1322.9
293.15 K, x1 = 0.3018 | 837.718 | 1335.3
293.15 K, x1 = 0.3462 | 846.906 | 1346.3
293.15 K, x1 = 0.4049 | 859.091 | 1362
293.15 K, x1 = 0.4478 | 868.011 | 1374.1
293.15 K, x1 = 0.4972 | 878.435 | 1389.1
293.15 K, x1 = 0.5444 | 888.383 | 1404.1
293.15 K, x1 = 0.5942 | 898.936 | 1420.7
293.15 K, x1 = 0.6445 | 909.64 | 1438.3
293.15 K, x1 = 0.6931 | 920.029 | 1456
293.15 K, x1 = 0.7564 | 933.633 | 1480.3
293.15 K, x1 = 0.7917 | 941.225 | 1494.2
293.15 K, x1 = 0.8372 | 951.07 | 1512.7
293.15 K, x1 = 0.89 | 962.5 | 1534.8
293.15 K, x1 = 0.9446 | 974.383 | 1558.2
298.15 K, x1 = 0.0673 | 786.236 | 1264.5
298.15 K, x1 = 0.1073 | 793.946 | 1271.7
298.15 K, x1 = 0.1609 | 804.548 | 1282
298.15 K, x1 = 0.2065 | 813.772 | 1291.8
298.15 K, x1 = 0.2536 | 823.353 | 1302.3
298.15 K, x1 = 0.2963 | 832.165 | 1312.6
298.15 K, x1 = 0.3554 | 844.401 | 1327.8
298.15 K, x1 = 0.3981 | 853.363 | 1339.6
298.15 K, x1 = 0.4479 | 863.765 | 1354
298.15 K, x1 = 0.5055 | 875.962 | 1371.8
298.15 K, x1 = 0.5537 | 886.222 | 1387.5
298.15 K, x1 = 0.5968 | 895.414 | 1402.5
298.15 K, x1 = 0.6482 | 906.388 | 1420.6
298.15 K, x1 = 0.6939 | 916.254 | 1437.6
298.15 K, x1 = 0.753 | 928.945 | 1460.4
298.15 K, x1 = 0.795 | 938.08 | 1477.2
298.15 K, x1 = 0.8347 | 946.748 | 1493.6
298.15 K, x1 = 0.8896 | 958.645 | 1516.7
298.15 K, x1 = 0.9399 | 969.599 | 1538.5
303.15 K, x1 = 0.0581 | 779.854 | 1239.8
303.15 K, x1 = 0.1038 | 788.651 | 1248.4
303.15 K, x1 = 0.1557 | 798.906 | 1258.8
303.15 K, x1 = 0.2015 | 808.134 | 1268.8
303.15 K, x1 = 0.2526 | 818.565 | 1280.6
303.15 K, x1 = 0.2975 | 827.884 | 1291.7
303.15 K, x1 = 0.3479 | 838.328 | 1304.9
303.15 K, x1 = 0.3974 | 848.695 | 1318.7
303.15 K, x1 = 0.451 | 859.961 | 1334.5
303.15 K, x1 = 0.5005 | 870.442 | 1351.5
303.15 K, x1 = 0.5512 | 881.294 | 1366.7
303.15 K, x1 = 0.5922 | 890.064 | 1380.8
303.15 K, x1 = 0.6575 | 904.033 | 1404.2
303.15 K, x1 = 0.6956 | 912.351 | 1418.6
303.15 K, x1 = 0.7501 | 924.185 | 1439.9
303.15 K, x1 = 0.7995 | 934.921 | 1459.7
303.15 K, x1 = 0.8447 | 944.844 | 1478.6
303.15 K, x1 = 0.8956 | 955.901 | 1500
303.15 K, x1 = 0.9411 | 965.875 | 1520
